Values quoted from earlier work as cited in patent publication US10300101B2, “Methods and compositions for enhancing or maintaining fertility” (Quality IP Holdings, LLC, priority 2012, dated 2019).

How the values were obtained:
hGH levels [1] = system: hGH levels
hGH levels [2] = settings: subcutaneous injection of 0.06 IU in hGH deficient subjects

| Compound | elevation of serum hGH levels (hGH levels [1]; 30 g intravenous, in males) | increase in hGH levels (hGH levels [1]; intravenous infusion of 183 mg/kg body weight in females) | mean levels of hGH reached (hGH levels [2]) |
| --- | --- | --- | --- |
| N=C(N)NCCC[C@H](N)C(=O)O [arginine] | 8.6 fold | > 20 fold |  |
| hGH: human growth hormone given by subcutaneous injection to hGH deficient subjects |  |  | 0.4 ng/mL |
